Experimental data reported in PubChem BioAssay AID1259407 (Chemical Carcinogenesis Research Information System (CCRIS), 2018).
Activity calls are given as the source filed them. The rule behind the calls is not given here.

Test system: CCRIS mutagenicity, Ames/micronucleus/aberration tests
Experiment: CCRIS mutagenicity studies

Measured: mutagenic call

C=C(C)C(=O)OCCCC
inactive: Test System: AMES SALMONELLA TYPHIMURIUM, Strain/Indicator: TA98, Metabolic Activation: HAMSTER, LIVER, S-9, AROCLOR 1254 (10%), Method: PREINCUBATION inactive; negative | Test System: AMES SALMONELLA TYPHIMURIUM, Strain/Indicator: TA98, Metabolic Activation: NONE, Method: PREINCUBATION inactive; negative | Test System: AMES SALMONELLA TYPHIMURIUM, Strain/Indicator: TA98, Metabolic Activation: NONE, Method: STANDARD PLATE inactive; negative | Test System: AMES SALMONELLA TYPHIMURIUM, Strain/Indicator: TA98, Metabolic Activation: RAT LIVER S-9, PHENOBARBITAL AND BETA-NAPHTHOFLAVONE, Method: PREINCUBATION inactive; negative | Test System: AMES SALMONELLA TYPHIMURIUM, Strain/Indicator: TA98, Metabolic Activation: RAT, LIVER, S-9, AROCLOR 1254 (10%), Method: PREINCUBATION inactive; negative | Test System: AMES SALMONELLA TYPHIMURIUM, Strain/Indicator: TA98, Metabolic Activation: RAT, LIVER, S-9, AROCLOR 1254, Method: STANDARD PLATE inactive; negative | Test System: AMES SALMONELLA TYPHIMURIUM, Strain/Indicator: TA98, Metabolic Activation: RAT, LIVER, S-9, SODIUM PHENOBARBITAL, Method: STANDARD PLATE inactive; negative | Test System: AMES SALMONELLA TYPHIMURIUM, Strain/Indicator: TA100, Metabolic Activation: HAMSTER, LIVER, S-9, AROCLOR 1254 (10%), Method: PREINCUBATION inactive; negative | Test System: AMES SALMONELLA TYPHIMURIUM, Strain/Indicator: TA100, Metabolic Activation: NONE, Method: PREINCUBATION inactive; negative | Test System: AMES SALMONELLA TYPHIMURIUM, Strain/Indicator: TA100, Metabolic Activation: NONE, Method: STANDARD PLATE inactive; negative | Test System: AMES SALMONELLA TYPHIMURIUM, Strain/Indicator: TA100, Metabolic Activation: RAT LIVER S-9, PHENOBARBITAL AND BETA-NAPHTHOFLAVONE, Method: PREINCUBATION inactive; negative | Test System: AMES SALMONELLA TYPHIMURIUM, Strain/Indicator: TA100, Metabolic Activation: RAT, LIVER, S-9, AROCLOR 1254 (10%), Method: PREINCUBATION inactive; negative | Test System: AMES SALMONELLA TYPHIMURIUM, Strain/Indicator: TA100, Metabolic Activation: RAT, LIVER, S-9, AROCLOR 1254, Method: STANDARD PLATE inactive; negative | Test System: AMES SALMONELLA TYPHIMURIUM, Strain/Indicator: TA100, Metabolic Activation: RAT, LIVER, S-9, SODIUM PHENOBARBITAL, Method: STANDARD PLATE inactive; negative | Test System: AMES SALMONELLA TYPHIMURIUM, Strain/Indicator: TA1535, Metabolic Activation: HAMSTER, LIVER, S-9, AROCLOR 1254 (10%), Method: PREINCUBATION inactive; negative | Test System: AMES SALMONELLA TYPHIMURIUM, Strain/Indicator: TA1535, Metabolic Activation: NONE, Method: PREINCUBATION inactive; negative | Test System: AMES SALMONELLA TYPHIMURIUM, Strain/Indicator: TA1535, Metabolic Activation: NONE, Method: STANDARD PLATE inactive; negative | Test System: AMES SALMONELLA TYPHIMURIUM, Strain/Indicator: TA1535, Metabolic Activation: RAT LIVER S-9, PHENOBARBITAL AND BETA-NAPHTHOFLAVONE, Method: PREINCUBATION inactive; negative | Test System: AMES SALMONELLA TYPHIMURIUM, Strain/Indicator: TA1535, Metabolic Activation: RAT, LIVER, S-9, AROCLOR 1254 (10%), Method: PREINCUBATION inactive; negative | Test System: AMES SALMONELLA TYPHIMURIUM, Strain/Indicator: TA1535, Metabolic Activation: RAT, LIVER, S-9, AROCLOR 1254, Method: STANDARD PLATE inactive; negative | Test System: AMES SALMONELLA TYPHIMURIUM, Strain/Indicator: TA1535, Metabolic Activation: RAT, LIVER, S-9, SODIUM PHENOBARBITAL, Method: STANDARD PLATE inactive; negative | Test System: AMES SALMONELLA TYPHIMURIUM, Strain/Indicator: TA1537, Metabolic Activation: HAMSTER, LIVER, S-9, AROCLOR 1254 (10%), Method: PREINCUBATION inactive; negative | Test System: AMES SALMONELLA TYPHIMURIUM, Strain/Indicator: TA1537, Metabolic Activation: NONE, Method: PREINCUBATION inactive; negative | Test System: AMES SALMONELLA TYPHIMURIUM, Strain/Indicator: TA1537, Metabolic Activation: NONE, Method: STANDARD PLATE inactive; negative | Test System: AMES SALMONELLA TYPHIMURIUM, Strain/Indicator: TA1537, Metabolic Activation: RAT LIVER S-9, PHENOBARBITAL AND BETA-NAPHTHOFLAVONE, Method: PREINCUBATION inactive; negative | Test System: AMES SALMONELLA TYPHIMURIUM, Strain/Indicator: TA1537, Metabolic Activation: RAT, LIVER, S-9, AROCLOR 1254 (10%), Method: PREINCUBATION inactive; negative | Test System: AMES SALMONELLA TYPHIMURIUM, Strain/Indicator: TA1537, Metabolic Activation: RAT, LIVER, S-9, AROCLOR 1254, Method: STANDARD PLATE inactive; negative | Test System: AMES SALMONELLA TYPHIMURIUM, Strain/Indicator: TA1537, Metabolic Activation: RAT, LIVER, S-9, SODIUM PHENOBARBITAL, Method: STANDARD PLATE inactive; negative | Test System: AMES SALMONELLA TYPHIMURIUM, Strain/Indicator: TA1538, Metabolic Activation: NONE, Method: STANDARD PLATE inactive; negative | Test System: AMES SALMONELLA TYPHIMURIUM, Strain/Indicator: TA1538, Metabolic Activation: RAT, LIVER, S-9, AROCLOR 1254, Method: STANDARD PLATE inactive; negative | Test System: AMES SALMONELLA TYPHIMURIUM, Strain/Indicator: TA1538, Metabolic Activation: RAT, LIVER, S-9, SODIUM PHENOBARBITAL, Method: STANDARD PLATE inactive; negative | Test System: E.COLI, Strain/Indicator: WP2UVRA/PKM101, Metabolic Activation: NONE, Method: PREINCUBATION inactive; negative | Test System: E.COLI, Strain/Indicator: WP2UVRA/PKM101, Metabolic Activation: RAT LIVER S-9, PHENOBARBITAL AND BETA-NAPHTHOFLAVONE, Method: PREINCUBATION inactive; negative
